Drawing on PubChem BioAssay (NCI), this text covers GI50 and TGI for ten molecules.

Where “and” joins values, the source holds several entries; their conditions need not be identical. Equal entries are not always repeated.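 Test compounds were applied to cells in 96-well plates for 48 hours at 5 doses. The concentration for 50% growth inhibition is given as GI50. TGI is the concentration that stops growth completely.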

Test systems include CCRF-CEM leukemia; A549 NSCLC; SK-MEL-28 melanoma; KM12 colon; BT-549 breast; DU-145 prostate; NCI-H23 lung; HL-60(TB) leukemia; K-562 leukemia; SR leukemia.
Holding throughout (assay): inhibition of tumour cell growth, NCI panel, 48 h

Regarding `COc1ccc(-c2ncnc3c2ncn3CC#CCCl)cc1`, the GI50 with CCRF-CEM leukemia was 3.84 µM; with A549 NSCLC, 7.39 µM; in the test on SK-MEL-28 melanoma it was 9.87 µM; in the test on KM12 colon, 4.85 µM; in the test with BT-549 breast, 2.98 µM; in the test on DU-145 prostate, 4.74 µM. The GI50 with NCI-H23 lung is 7.83 µM; in the test with HL-60(TB) leukemia, 3.06 µM; in the test on K-562 leukemia, 8.06 µM; with SR leukemia, 5.24 µM. Further, the TGI in the test with CCRF-CEM leukemia was determined as 42.7 µM; with A549 NSCLC, 30.7 µM; in the test with SK-MEL-28 melanoma it was 21.8 µM; with KM12 colon, 17.5 µM; in the test on BT-549 breast, 13.6 µM; in the test on DU-145 prostate it was 18.4 µM. The TGI in the test on NCI-H23 lung is 21.4 µM; in the test on HL-60(TB) leukemia, 17.6 µM; in the test on K-562 leukemia, more than 100 µM; with SR leukemia, more than 100 µM.
With `O=C1c2ccccc2C(=O)N1CCc1ncc(-c2ccccc2)[nH]1`, the TGI in the test with CCRF-CEM leukemia, in the test on A549 NSCLC, in the test with SK-MEL-28 melanoma, in the test with KM12 colon, in the test on BT-549 breast and in the test with DU-145 prostate was more than 100 µM in each case. In addition, the TGI in the test on NCI-H23 lung, in the test on HL-60(TB) leukemia, in the test on K-562 leukemia and in the test on SR leukemia was more than 100 µM throughout.
With `O=C(O)Cc1cccc2c(=O)cc(-c3ccccc3)oc12`, the GI50 in the test on CCRF-CEM leukemia is > 49.6 µM and 29.8 µM; in the test with A549 NSCLC, 728 µM; with SK-MEL-28 melanoma, 533 µM; with KM12 colon, 334 µM; in the test on BT-549 breast it was more than 1000 µM; with DU-145 prostate, more than 250 µM. Moreover, the results for the GI50 with NCI-H23 lung, with HL-60(TB) leukemia and with K-562 leukemia were 581 µM, 142 µM and 148 µM, respectively. For the same molecule, the TGI in the test on CCRF-CEM leukemia was 237 µM and 747 µM; in the test on A549 NSCLC it was 250 µM and > 1000 µM; in the test with SK-MEL-28 melanoma, more than 1000 µM; in the test on KM12 colon it was 250 µM and > 889 µM; with BT-549 breast, 250 µM and > 1000 µM; in the test on DU-145 prostate it was more than 1000 µM. In addition, the TGI was more than 1000 µM in the test with NCI-H23 lung; > 250 µM and 193 µM with HL-60(TB) leukemia; 250 µM and > 844 µM in the test on K-562 leukemia; 250 µM and > 917 µM with SR leukemia.
On to `COC(=O)/C=C1/SC(=Nc2cccc(Cl)c2)N(CCc2c[nH]c3ccc(O)cc23)C1=O`, for which the GI50 is 0.931 µM in the test with CCRF-CEM leukemia; 2.65 µM with A549 NSCLC; 1.69 µM in the test on SK-MEL-28 melanoma; 1.53 µM in the test on KM12 colon; 1.24 µM in the test on BT-549 breast; 1.86 µM with DU-145 prostate. The GI50 in the test on NCI-H23 lung was 1.86 µM; in the test with HL-60(TB) leukemia it was 1.79 µM; in the test with SR leukemia, 0.522 µM. Moreover, the TGI worked out at 5.27 µM in the test on CCRF-CEM leukemia; 6.95 µM with A549 NSCLC; 3.33 µM with SK-MEL-28 melanoma; 3.29 µM in the test on KM12 colon; 3.05 µM in the test on BT-549 breast; 4.81 µM in the test on DU-145 prostate. Further, the TGI with NCI-H23 lung was 4.34 µM; with HL-60(TB) leukemia, 6.09 µM; in the test with SR leukemia, 7.13 µM.
For the molecule `CC1(C)N=C(N)N=C(N)N1c1ccc(CNC(=O)Nc2ccc(S(=O)(=O)F)c(Cl)c2)c(Cl)c1`, the GI50 was 0.477 µM in the test with CCRF-CEM leukemia; 0.56 µM with A549 NSCLC; 4.35 µM with SK-MEL-28 melanoma; 0.589 µM in the test with KM12 colon; 8.51 µM with BT-549 breast; 0.76 µM in the test with DU-145 prostate. Also, the GI50 in the test with NCI-H23 lung was 0.585 µM; in the test on HL-60(TB) leukemia, 0.377 µM; in the test with K-562 leukemia, 0.257 µM; in the test on SR leukemia, 0.167 µM. Moreover, the TGI in the test with CCRF-CEM leukemia, with A549 NSCLC, in the test with SK-MEL-28 melanoma, in the test with KM12 colon, in the test with BT-549 breast and with DU-145 prostate was more than 100 µM throughout. Also, the TGI in the test on NCI-H23 lung, with HL-60(TB) leukemia, with K-562 leukemia and in the test on SR leukemia was more than 100 µM each time.
Regarding `Cc1ccc(S(=O)(=O)ON2C(=O)c3cccc4cc([N+](=O)[O-])cc(c34)C2=O)cc1`, the TGI with A549 NSCLC, with SK-MEL-28 melanoma, in the test on KM12 colon, in the test on BT-549 breast, in the test with DU-145 prostate and with NCI-H23 lung was more than 100 µM each time. The molecule further gave a TGI in the test with SR leukemia of more than 100 µM.
For the molecule `Cc1cc(OCc2nnc3n2S(=O)(=O)c2ccccc2N3C)ccc1Cl`, the TGI was 38 µM with CCRF-CEM leukemia; more than 100 µM in the test with A549 NSCLC; more than 100 µM in the test on SK-MEL-28 melanoma; more than 100 µM in the test on KM12 colon; 36.4 µM in the test on BT-549 breast; more than 100 µM in the test with DU-145 prostate. In addition, the figures for the TGI in the test with NCI-H23 lung, in the test on HL-60(TB) leukemia and in the test on K-562 leukemia were more than 100 µM, 55.1 µM and more than 100 µM, respectively.
As to `O=C1Nc2c(Cl)cc(Cl)cc2/C1=N/N=C/c1ccco1`, the TGI with CCRF-CEM leukemia was more than 100 µM; in the test on A549 NSCLC, more than 100 µM; in the test on SK-MEL-28 melanoma, more than 100 µM; in the test with KM12 colon, more than 100 µM; in the test with BT-549 breast it was 60.6 µM; with NCI-H23 lung, 75.9 µM. In addition, the TGI with HL-60(TB) leukemia, with K-562 leukemia and in the test on SR leukemia was more than 100 µM throughout.
Turning to `Cc1ccc(OCC2CO2)c(Br)c1` (configuration not stated), the TGI in the test on CCRF-CEM leukemia was more than 100 µM; with A549 NSCLC it was 62.2 µM; in the test with SK-MEL-28 melanoma, 85.1 µM; in the test with KM12 colon it was more than 100 µM; in the test with BT-549 breast, 0.879 µM; with DU-145 prostate, more than 100 µM. The TGI is 76.7 µM in the test on NCI-H23 lung, more than 100 µM in the test on HL-60(TB) leukemia and 71.6 µM in the test with K-562 leukemia.
Regarding `Nc1ncc(-c2ccc3ncnc(Nc4cccc(Cl)c4)c3c2)cn1`, the GI50 is 1.85 µM with CCRF-CEM leukemia; 1.7 µM in the test on A549 NSCLC; 4.79 µM with KM12 colon; 0.262 µM in the test with BT-549 breast; 0.809 µM in the test with DU-145 prostate; 0.525 µM with HL-60(TB) leukemia. For the same molecule, the GI50 in the test with SR leukemia was 0.268 µM. Besides, the TGI in the test with CCRF-CEM leukemia, in the test with A549 NSCLC, in the test on KM12 colon and in the test with DU-145 prostate was more than 100 µM each time.
